Measurements published in PMC4677984, “Activation of Muscarinic M1 Acetylcholine Receptors Induces Long-Term Potentiation in the Hippocampus” (Cerebral Cortex (New York, NY), 2015).

Legend:
human M5 receptors [1] = target: T1, human M5 receptors (Homo sapiens, UniProt P08912); assay: cell-based
Method: (§1) CHO cells stably expressing recombinant human M1, M3, and M5 Rs and AV12 cells stably expressing Gα15 and recombinant human M2 or M4 Rs were cultured in DMEM with high glucose and pyridoxine hydrochloride supplemented with 5–10% heat-inactivated fetal bovine serum, 10–20 mM HEPES, 1 mM L-glutamine, 1% penicillin/streptomycin solution and selection agents, 0.5 mg/mL geneticin, or 0.3 µg/mL puromycin. Confluent cultures were passaged weekly and cells harvested 24 h prior to assay using 0.25% trypsin–EDTA and plated at a density of 40 000–50 000 cells per well in tissue culture treated, poly-D-lysine-coated 96-well black-walled, clear bottom plates (Corning or Becton-Dickinson). For FLIPR (FLIPR-tetra, Molecular Devices) assays, media was removed and cells were incubated with 5 µM Fluo-4-AM/0.05% pluronic F-127 (Invitrogen) in a HEPES-buffered salt solution (HEPES-HBSS; composition, in mM; 135 NaCl, 5 KCl, 1.3 CaCl2, 0.5 MgCl2, 0.4 MgSO4, 0.4 KH2PO4, 4.2 NaHCO3, 0.3 Na2HPO4, 5.6 glucose, 20 HEPES, +2.5 mM probenecid for CHO cell lines, pH 7.5 adjusted with 5 M NaOH) for 1 h at room temperature, in the dark, before the media was removed and replaced with HEPES-buffered salt solution in the absence of Fluo-4. Probenecid was included to optimize dye loading in CHO cell lines. Although probenecid has been reported to interact and activate some TRP channels {McClenaghan, 2012 #2996}, there are no reports of interactions with mAChRs or nontransfected CHO cells. Plates were then transferred to FLIPR for experiments, which were also conducted at room temperature.
(§2) For data analysis, relative EC50 and IC50 values were calculated using a 4-parameter logistic curve (GraphPad Prism v6).

human M2 receptors [2] = target: T2, human M2 receptors (Homo sapiens, UniProt P08172); assay: cell-based
Method: as §1, §2

human M4 receptors [3] = target: T3, human M4 receptors (Homo sapiens, UniProt P08173); assay: cell-based
Method: as §1, §2

[4] = system: CA1 pyramidal neurons (M1R KO); details: 7 µM, M1R KO mice
dopamine D2 receptors = details: ref Melancon et al. 2013; cited from earlier work
CA1 pyramidal neurons [5] = details: 7 µM, WT mice 6-9 weeks
[6] = system: CA1 pyramidal neurons (M1R KO); details: 7 µM, M1R KO mice; remark: listed apart in the source
mouse native M1Rs = mouse native M1Rs (Mus musculus, UniProt P12657); assay: biochemical
Method: (§3) All procedures were performed at 4°C. […] Homogenate was centrifuged at 1000×g for 10 min and supernatant collected, the pellet was rehomogenized and centrifuged again, as above, and supernatant pooled and centrifuged at 11 000×g for 20 min. The resulting pellet was suspended in a final storage buffer (10 mM HEPES, 1 mM EGTA, 1 mM MgCl2, 1 mM DTT; pH 7.4) and centrifuged at 27 000×g for 20 min. Supernatant was removed and the final pellet suspended in 2 mL of final storage buffer. Protein concentration was measured using the Bradford method ([Bradford 1976]) (Coomassie Plus, Bio-Rad protein assay kit) with bovine gamma globulin standards. Samples were then aliquoted and stored at −80°C.
(§4) GTPɣ[^35S] binding in mouse WT and M1 KO hippocampal membranes were determined in triplicate using an antibody capture technique in 96-well plate format ([DeLapp et al. 1999]). Membrane aliquots (15 µg/well) from WT or M1 KO C57BL6/NTac mice were incubated with test compound and GTPɣ[^35S] (500 pM/well) for 30 min. […] Plates were left to incubate for 3 h and then centrifuged for 10 min at 2000 rpm. Plates were counted for 1 min/well using a Wallac MicroBeta Trilux scintillation counter (PerkinElmer). All incubations took place at room temperature in GTP-binding assay buffer (In mM, 20 HEPES, 100 NaCl, 5 MgCl2; pH 7.4).
as §2

human M5 receptors [7] = target: T1, human M5 receptors; details: over the concentration range tested
Method: as §1, §2

human M2 receptors [8] = target: T2, human M2 receptors; details: over the concentration range tested
Method: as §1, §2

human M3 receptors = human M3 receptors (Homo sapiens, UniProt P20309); details: over the concentration range tested
Method: as §1, §2

human M4 receptors [9] = target: T3, human M4 receptors; details: over the concentration range tested
Method: as §1, §2

5-HT2B receptors = details: ref Melancon et al. 2013; cited from earlier work
CA1 pyramidal neurons [10] = details: 7 µM, WT mice, NBQX + L-689,560, -55 mV
[11] = system: Gαq activation in M1 KO hippocampal membranes
Method: as §3
as §4, with “All incubations took place at room temperature in GTP-binding assay buffer (In mM, 20 HEPES, 100 NaCl, 5 MgCl2; pH 7.4).” left out
as §2

CA1 pyramidal neurons [12] = system: CA1 pyramidal neurons
human M1Rs = human M1Rs (Homo sapiens, UniProt P11229); assay: cell-based
Method: CHO cells stably expressing recombinant human M1, M3, and M5 Rs and AV12 cells stably expressing Gα15 and recombinant human M2 or M4 Rs were cultured in DMEM with high glucose and pyridoxine hydrochloride supplemented with 5–10% heat-inactivated fetal bovine serum, 10–20 mM HEPES, 1 mM L-glutamine, 1% penicillin/streptomycin solution and selection agents, 0.5 mg/mL geneticin, or 0.3 µg/mL puromycin. Confluent cultures were passaged weekly and cells harvested 24 h prior to assay using 0.25% trypsin–EDTA and plated at a density of 40 000–50 000 cells per well in tissue culture treated, poly-D-lysine-coated 96-well black-walled, clear bottom plates (Corning or Becton-Dickinson). For FLIPR (FLIPR-tetra, Molecular Devices) assays, media was removed and cells were incubated with 5 µM Fluo-4-AM/0.05% pluronic F-127 (Invitrogen) in a HEPES-buffered salt solution (HEPES-HBSS; composition, in mM; 135 NaCl, 5 KCl, 1.3 CaCl2, 0.5 MgCl2, 0.4 MgSO4, 0.4 KH2PO4, 4.2 NaHCO3, 0.3 Na2HPO4, 5.6 glucose, 20 HEPES, +2.5 mM probenecid for CHO cell lines, pH 7.5 adjusted with 5 M NaOH) for 1 h at room temperature, in the dark, before the media was removed and replaced with HEPES-buffered salt solution in the absence of Fluo-4. […]

[13] = system: CA1 pyramidal cell firing; details: studies not reported here; reversed by scopolamine
cognition = details: clinical study; ref Nathan et al. 2013; cited from earlier work

mouse native M1Rs, sequence (P12657 whole entry): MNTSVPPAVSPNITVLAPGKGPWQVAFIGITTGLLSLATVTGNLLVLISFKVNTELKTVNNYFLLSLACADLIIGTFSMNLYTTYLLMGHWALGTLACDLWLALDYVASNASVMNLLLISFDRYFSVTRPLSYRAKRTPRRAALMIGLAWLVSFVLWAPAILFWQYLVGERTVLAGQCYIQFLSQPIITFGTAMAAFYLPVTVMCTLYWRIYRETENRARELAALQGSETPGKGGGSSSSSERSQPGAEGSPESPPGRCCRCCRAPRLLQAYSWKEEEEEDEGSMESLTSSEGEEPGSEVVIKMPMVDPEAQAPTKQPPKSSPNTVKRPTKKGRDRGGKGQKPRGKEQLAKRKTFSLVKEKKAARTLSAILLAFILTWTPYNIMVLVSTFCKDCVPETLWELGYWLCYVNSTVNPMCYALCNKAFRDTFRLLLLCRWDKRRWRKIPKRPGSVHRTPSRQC
T1 sequence (P08912 whole entry): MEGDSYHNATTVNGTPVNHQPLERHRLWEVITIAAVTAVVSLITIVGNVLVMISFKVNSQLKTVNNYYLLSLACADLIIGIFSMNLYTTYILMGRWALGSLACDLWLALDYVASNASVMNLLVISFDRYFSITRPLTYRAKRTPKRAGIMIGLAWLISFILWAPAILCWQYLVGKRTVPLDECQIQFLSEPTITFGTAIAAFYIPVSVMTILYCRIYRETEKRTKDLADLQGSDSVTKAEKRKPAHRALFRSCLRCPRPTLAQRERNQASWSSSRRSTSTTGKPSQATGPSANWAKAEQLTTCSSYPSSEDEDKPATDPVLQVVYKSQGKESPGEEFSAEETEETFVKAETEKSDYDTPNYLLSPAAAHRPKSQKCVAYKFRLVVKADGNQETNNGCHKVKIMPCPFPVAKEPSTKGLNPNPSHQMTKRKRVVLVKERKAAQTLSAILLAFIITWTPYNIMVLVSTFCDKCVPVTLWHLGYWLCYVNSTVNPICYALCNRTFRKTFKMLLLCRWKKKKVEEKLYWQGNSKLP
T3 sequence (P08173 whole entry): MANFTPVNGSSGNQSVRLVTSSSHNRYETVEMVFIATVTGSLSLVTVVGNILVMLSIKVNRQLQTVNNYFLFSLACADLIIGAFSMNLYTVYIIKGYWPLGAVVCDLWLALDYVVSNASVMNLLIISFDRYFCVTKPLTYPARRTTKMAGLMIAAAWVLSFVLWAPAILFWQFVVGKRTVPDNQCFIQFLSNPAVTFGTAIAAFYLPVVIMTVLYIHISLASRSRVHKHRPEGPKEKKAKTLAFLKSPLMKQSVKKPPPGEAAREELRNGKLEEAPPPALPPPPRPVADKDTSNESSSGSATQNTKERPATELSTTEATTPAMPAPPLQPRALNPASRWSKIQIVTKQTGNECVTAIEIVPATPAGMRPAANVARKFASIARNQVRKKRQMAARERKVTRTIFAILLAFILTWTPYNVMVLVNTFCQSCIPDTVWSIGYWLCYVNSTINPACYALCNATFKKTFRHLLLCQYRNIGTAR
human M1Rs, sequence (P11229 whole entry): as the sequence (P12657 whole entry) above, with V5A, S254T, K320R, G337A, V413I counted along it
T2 sequence (P08172 whole entry): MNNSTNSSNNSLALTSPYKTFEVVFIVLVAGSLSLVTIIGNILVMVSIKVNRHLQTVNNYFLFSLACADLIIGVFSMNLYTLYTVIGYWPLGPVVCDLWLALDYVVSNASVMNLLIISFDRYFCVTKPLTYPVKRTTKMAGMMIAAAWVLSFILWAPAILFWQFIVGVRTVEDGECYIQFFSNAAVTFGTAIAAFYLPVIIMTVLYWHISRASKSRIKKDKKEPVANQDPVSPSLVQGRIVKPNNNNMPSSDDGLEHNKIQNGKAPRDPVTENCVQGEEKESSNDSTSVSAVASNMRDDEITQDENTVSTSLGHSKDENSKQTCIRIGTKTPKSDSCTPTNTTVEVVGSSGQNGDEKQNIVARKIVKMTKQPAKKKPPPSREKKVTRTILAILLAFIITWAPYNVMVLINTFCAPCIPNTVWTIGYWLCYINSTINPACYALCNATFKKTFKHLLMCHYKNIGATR
human M3 receptors, sequence (P20309 whole entry): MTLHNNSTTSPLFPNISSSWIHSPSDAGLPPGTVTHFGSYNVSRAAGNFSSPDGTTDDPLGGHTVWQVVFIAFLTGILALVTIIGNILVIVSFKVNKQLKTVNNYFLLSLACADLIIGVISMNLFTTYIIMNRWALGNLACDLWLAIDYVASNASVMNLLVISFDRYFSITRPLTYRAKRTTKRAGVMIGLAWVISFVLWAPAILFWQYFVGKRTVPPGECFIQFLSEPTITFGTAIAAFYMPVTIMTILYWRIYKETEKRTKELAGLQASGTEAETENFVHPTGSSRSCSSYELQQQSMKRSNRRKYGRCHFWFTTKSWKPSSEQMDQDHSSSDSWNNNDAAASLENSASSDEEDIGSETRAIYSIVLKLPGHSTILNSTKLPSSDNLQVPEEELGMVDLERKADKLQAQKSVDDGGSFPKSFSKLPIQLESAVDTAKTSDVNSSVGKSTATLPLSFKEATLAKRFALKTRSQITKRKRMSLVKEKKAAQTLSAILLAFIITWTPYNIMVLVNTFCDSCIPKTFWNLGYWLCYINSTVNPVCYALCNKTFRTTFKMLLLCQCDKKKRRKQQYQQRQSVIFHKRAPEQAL

CCCCC1CCN(CCCN2C(=O)CCc3ccccc32)CC1 [77-LH-28-1, 1-[3-(4-butyl-1-piperidinyl)propyl]-3,4-dihydro-2[1H]-quinolinone]
IC50 (human M5 receptors [1]): 2.22 µM | IC50 (human M2 receptors [2]): 1.19 µM | IC50 (human M4 receptors [3]): 2.03 µM | IPSP amplitude [4]: 64.0 ± 13.3% | cross-reactivity at dopamine D2 receptors (dopamine D2 receptors): some cross-reactivity | depolarization of CA1 pyramidal neurons (CA1 pyramidal neurons [5]): 10.4 ± 3.9 mV | increase in input resistance (CA1 pyramidal neurons [5]): 86 ± 51 MΩ | EPSP amplitude [6]: 118.5 ± 24.7% | EC50 (mouse native M1Rs): 0.156 µM | Emax (mouse native M1Rs; read-out: Emax for Gαq activation): 92 ± 2% | agonism of M5 receptors (human M5 receptors [7]): No agonism | agonism of M2 receptors (human M2 receptors [8]): No agonism | agonism of M3 receptors (human M3 receptors): No agonism | agonism of M4 receptors (human M4 receptors [9]): No agonism | cross-reactivity at 5-HT2B receptors (5-HT2B receptors): some cross-reactivity | IPSP amplitude (CA1 pyramidal neurons [10]): 39.1 ± 9.2% | Gαq activation response in M1R KO mice [11]: no response | EPSP amplitude (CA1 pyramidal neurons [12]): 194.2 ± 42.0% | EC50 (human M1Rs): 0.0222 µM | Emax (human M1Rs; read-out: efficacy (Emax)): 98 ± 2%

Cc1cc(F)c2[nH]c(=O)n(C3CCN(C4CCOCC4)CC3)c2c1 [GSK1034702]
CA1 pyramidal cell firing in vivo [13]: increase in CA1 pyramidal cell firing | effects on cognition (cognition): positive effects on cognition

oxotremorine M
Emax for Gαq activation (mouse native M1Rs; WT hippocampus, percentage of maximal signal with 100 µM oxo-M): 99 ± 5% | Gαq activation response in M1R KO mice [11]: No response
